As usually defined, the IC50 is the concentration at which inhibition is half-maximal. The term melting point denotes the temperature of the solid-liquid transition.

Our source for the IC50 and melting point values is patent US7115750B1, “Melanin concentrating hormone antagonist” (Takeda Pharmaceutical Company Limited, priority 1999, dated 2006).

The target in data set [1] is SLC-1 expressing CHO cell membrane fractions (MCH receptor) (UniProt Q99705). The data set can be described thus: Determination of antagonist activity using GTPgS binding assay. It is filed as biochemical, human and rat (not specified for the table). The note with it: [35S]-GTPγS binding stimulated by MCH, SLC-1 expressing CHO cell membrane 20 μg/ml, 1 hour; read-out: Inhibition Activity (IC50 value: nM). As for the experimental part: Membrane fraction was prepared by the following method, using the human SLC-1 expressing CHO cell clone 57 obtained in Reference Example 1-10, and the rat SLC-1 expressing CHO cell clone 44 obtained in Reference Example 1-4.
The human and rat SLC-1 expressing CHO cells (1×10^8) were scraped in buffer saline phosphate (pH 7.4) to which 5 mM EDTA (ethylenediaminetetraacetic acid) had been added, and centrifuged. 10 ml of homogenized buffer (10 mM NaHCO3, 5 mM EDTA, pH 7.5) was added to the cell pellets, and they were homogenized using a Polytron homogenizer. […]
After this reaction mixture was allowed to react for 1 hour under stirring, it was filtered under vacuum using a glass filter (GF-C), then the filter was washed 3 times with 300 μl of washing solution (50 mM Tris-HCl buffer solution pH 7.5). […] of liquid scintillator was added to the glass filter, and residual radioactivity was determined using a liquid scintillation counter.
The IC50 value of the compound was calculated from the binding inhibition rate (%), based on the definition that the binding inhibition rate (%)=(radioactivity when compound and MCH were added−radioactivity when DMSO solution was added)/(radioactivity when MCH was added−radioactivity when DMSO solution was added)×100.

The structures appear in SMILES notation. Where only a bound is given, the exact number is not on record here.

On to `COc1ccc(-c2ccc(C(=O)Nc3ccc4c(c3)CCC(CN(C)C)C4)cc2)cc1` (stereo not shown) [Example 1, N-[2-(N,N-Dimethylamino)methyl-6-tetralinyl]-(4′-methoxybiphenyl-4-yl)carboxamide], for which, in data set [1], the IC50 amounted to 40 nM.
As for `CN(C)CC1CCc2cc(NC(=O)c3ccc(-c4ccccc4)cc3)ccc2C1.Cl` (stereo not shown) [Reference Example 25, N-[2-(N,N-Dimethylamino)methyl-6-tetralinyl]-4-biphenylylcarboxamide hydrochloride], the melting point was more than 250 °C. The IC50 in data set [1] turned out to be 90 nM.
`CN(C)CC1=Cc2ccc(C(=O)Nc3ccc(Br)cc3)cc2CC1` [Example 101, N-(4-Bromophenyl)-6-[(dimethylamino)methyl]-7,8-dihydro-2-naphthalenecarboxamide] displayed a melting point of 175 to 179 °C.
Same read-out and setting: under `Cc1cc(-c2ccc(Cl)cc2)ccc1C(=O)Nc1ccc2c(c1)CCC(CN(C)C)C2` (stereo not shown) [Example 27, 4′-Chloro-N-[6-[(N,N-dimethylamino)methyl]-5,6,7,8-tetrahydro-2-naphthalenyl]-3-methyl[1,1′-biphenyl]-4-carboxamide] stands 163 to 165 °C; under `CSc1ccc(-c2ccc(C(=O)Nc3ccc4c(c3)CCC(CN(C)C)C4)cc2)cc1` (stereo not shown) [Example 36, N-[6-[(N,N-Dimethylamino)methyl]-5,6,7,8-tetrahydro-2-naphthalenyl]-4′-(methylsulfanyl)[1,1′-biphenyl]-4-carboxamide], 178 to 180 °C; under `CN(C)CC1CCc2cc(NC(=O)c3ccc(-c4ccc(C=O)cc4)cc3)ccc2C1` (stereo not shown) [Example 20, N-[6-[(N,N-Dimethylamino)methyl]-5,6,7,8-tetrahydro-2-naphthalenyl]-4′-formyl[1,1′-biphenyl]-4-carboxamide], 130 to 132 °C.
In the case of `CN(C)CC1COc2cc(NC(=O)c3ccc(-c4ccc(F)cc4F)cc3)ccc2O1` (stereo not shown) [Example 107, 2′,4′-Difluoro-N-[2-[(dimethylamino)methyl]-2,3-dihydro-1,4-benzodioxin-6-yl][1,1′-biphenyl]-4-carboxamide], the melting point was in the range of 209 to 210 °C.
For `CN(C)CCNC(=O)Cc1ccc(NC(=O)c2cc3ccccc3s2)cc1` [Example 185, N-[4-[2-[[2-(Dimethylamino)ethyl]amino]-2-oxoethyl]phenyl]-1-benzothiophen-2-carboxamide], the melting point was 186 to 187 °C (dec.).
Turning to `O=C(Nc1ccc2c(c1)CCC(CN1CCCC1)C2)c1ccc(-c2ccc(F)cc2)cc1` (stereo not shown) [Example 97, 4′-Fluoro-N-[6-(1-pyrrolidinylmethyl)-5,6,7,8-tetrahydro-2-naphthalenyl][1,1′-biphenyl]-4-carboxamide], the melting point lay in the range of 185 to 189 °C.
